Data on 20 molecules can be found in PubChem BioAssay AID330 (DTP/NCI, 2004).

This assay concerns P388 leukemia ip, CD2F1 mice, survival T/C. In words: NCI In Vivo Anticancer Drug Screen. Data for tumor model P388 Leukemia (intraperitoneal) in CD2F1 (CDF1) mice. As to conditions: endpoint: median survival time, higher = longer survival. In short, it runs like this: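 Mice carrying the transplanted tumor received test compound or vehicle. Survival was recorded in each group, and the value is the treated-group measurement divided by that of the vehicle-treated control group.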

Where [1] appears, read: dose: 60.0 mg/kg/injection, schedule: Q01DX005 (ip), vehicle: saline with Tween-80.
[2] abbreviates: dose: 120.0 mg/kg/injection, schedule: Q01DX005 (ip), vehicle: saline with Tween-80.
[3] abbreviates: dose: 240.0 mg/kg/injection, schedule: Q01DX005 (ip), vehicle: saline with Tween-80.
Setting [4] is: dose: 100.0 mg/kg/injection, schedule: Q01DX001 (ip), vehicle: Klucel (hydroxypropylcellulose) (HPC).
[5] abbreviates: dose: 200.0 mg/kg/injection, schedule: Q01DX001 (ip), vehicle: Klucel (hydroxypropylcellulose) (HPC).
[6] abbreviates: dose: 400.0 mg/kg/injection, schedule: Q01DX001 (ip), vehicle: Klucel (hydroxypropylcellulose) (HPC).
Setting [7] is: dose: 50.0 mg/kg/injection, schedule: Q01DX005 (ip), vehicle: Klucel (hydroxypropylcellulose) (HPC).
Setting [8] is: dose: 60.0 mg/kg/injection, schedule: Q01DX005 (ip), vehicle: Klucel (hydroxypropylcellulose) (HPC).
Where [9] appears, read: dose: 120.0 mg/kg/injection, schedule: Q01DX005 (ip), vehicle: Klucel (hydroxypropylcellulose) (HPC).

Several values for one entry are separate records, joined by “and”; a condition that tells them apart may be missing. Equal values may be shown once. Inconclusive results and toxic doses are left out.

For `Clc1ccc(-c2nnc(Nc3ccnc4cc(Cl)ccc34)s2)cc1`, the T/C is, setting by setting: (dose: 12.5 mg/kg/injection, schedule: Q01DX005 (ip), vehicle: saline with Tween-80) 96 % of control; (dose: 25.0 mg/kg/injection, schedule: Q01DX005 (ip), vehicle: saline with Tween-80) 96 % of control; (dose: 50.0 mg/kg/injection, schedule: Q01DX005 (ip), vehicle: saline with Tween-80) 99 % of control and 102 % of control.
`CCCCCCCCCCC(O)C1CCC(C2CCC(C(O)C(=O)CCCCCCCCCCCC3CC(C)OC3=O)O2)O1` (stereo not given): the T/C runs as follows: (dose: 0.35 mg/kg/injection, schedule: Q01DX005 (ip), vehicle: Klucel (hydroxypropylcellulose) (HPC)) 107 % of control and 115 % of control; (dose: 0.7 mg/kg/injection, schedule: Q01DX005 (ip), vehicle: Klucel (hydroxypropylcellulose) (HPC)) 112 % of control and 119 % of control; (dose: 1.4 mg/kg/injection, schedule: Q01DX005 (ip), vehicle: Klucel (hydroxypropylcellulose) (HPC)) 120 % of control.
Turning to `CN1C(=O)CCC1c1nc2ccccc2[nH]1` (stereo not given), the T/C is, setting by setting: under setting [1], 102 % of control; under setting [2], 101 % of control; under setting [3], 96 % of control.
Take `CN(C)CCC(=O)c1cccc(O)c1`: the T/C is 107 % of control (dose: 25.0 mg/kg/injection, schedule: Q01DX009 (ip), vehicle: saline); 98 % of control and 105 % of control (dose: 50.0 mg/kg/injection, schedule: Q01DX009 (ip), vehicle: saline); 98 % of control and 109 % of control (dose: 100.0 mg/kg/injection, schedule: Q01DX009 (ip), vehicle: saline); 97 % of control (dose: 200.0 mg/kg/injection, schedule: Q01DX009 (ip), vehicle: saline).
For `NNc1ccc2cccc([N+](=O)[O-])c2n1`, the T/C is 106 % of control (dose: 25.0 mg/kg/injection, schedule: Q01DX009 (ip), vehicle: other); 100 % of control (dose: 50.0 mg/kg/injection, schedule: Q01DX009 (ip), vehicle: other); 100 % of control (dose: 100.0 mg/kg/injection, schedule: Q01DX009 (ip), vehicle: other).
With `COc1cc(NC(C)=O)c(OC)c2c(=O)cc(C(=O)O)[nH]c12`, the T/C reads like this: under setting [4], 93 % of control; under setting [5], 98 % of control; under setting [6], 99 % of control.
For `O=C(O)c1cc2cccc([N+](=O)[O-])c2[se]1`, the T/C runs as follows: (dose: 50.0 mg/kg/injection, schedule: Q01DX009 (ip), vehicle: suspension in saline) 106 % of control; (dose: 100.0 mg/kg/injection, schedule: Q01DX009 (ip), vehicle: suspension in saline) 96 % of control; (dose: 200.0 mg/kg/injection, schedule: Q01DX009 (ip), vehicle: suspension in saline) 113 % of control.
Take `O=C(CC1(O)C(=O)Nc2c(Cl)cccc21)c1cccs1` (stereo not given): the T/C is, setting by setting: under setting [7], 103 % of control; (dose: 100.0 mg/kg/injection, schedule: Q01DX005 (ip), vehicle: Klucel (hydroxypropylcellulose) (HPC)) 100 % of control; (dose: 200.0 mg/kg/injection, schedule: Q01DX005 (ip), vehicle: Klucel (hydroxypropylcellulose) (HPC)) 104 % of control.
As for `O=C(Nc1ccc(Cl)c(Cl)c1)OCc1ccco1`, the T/C under setting [8] was 105 % of control and the T/C under setting [9] was 105 % of control.
Take `O=S(=O)(Oc1cccc(C(F)(F)F)c1)c1cccc(C(F)(F)F)c1`: the T/C reads like this: (dose: 6.25 mg/kg/injection, schedule: Q01DX009 (ip), vehicle: saline with Tween-80) 100 % of control; (dose: 6.25 mg/kg/injection, schedule: Q04DX003 (ip), vehicle: saline with Tween-80) 100 % of control; (dose: 12.5 mg/kg/injection, schedule: Q01DX009 (ip), vehicle: saline with Tween-80) 91 % of control; (dose: 12.5 mg/kg/injection, schedule: Q04DX003 (ip), vehicle: saline with Tween-80) 100 % of control; (dose: 25.0 mg/kg/injection, schedule: Q01DX009 (ip), vehicle: saline with Tween-80) 91 % of control; (dose: 25.0 mg/kg/injection, schedule: Q04DX003 (ip), vehicle: saline with Tween-80) 100 % of control.
Consider `CCCCCCCCCCCCN1C(=O)[N+](C)(C)N=C1[O-]`, for which the T/C by setting is: (dose: 100.0 mg/kg/injection, schedule: Q04DX003 (ip), vehicle: saline) 113 % of control; (dose: 200.0 mg/kg/injection, schedule: Q04DX003 (ip), vehicle: saline) 105 % of control; (dose: 400.0 mg/kg/injection, schedule: Q04DX003 (ip), vehicle: saline) 105 % of control.
Turning to `O=C(CCBr)N1CCN(C(=O)CCBr)CC1`, the T/C (dose: 2.5 mg/kg/injection, schedule: Q01DX009 (ip), vehicle: saline) is 100 % of control; the T/C (dose: 5.0 mg/kg/injection, schedule: Q01DX009 (ip), vehicle: saline) is 104 % of control; the T/C (dose: 5.0 mg/kg/injection, schedule: Q01DX010 (ip), vehicle: Klucel (hydroxypropylcellulose) (HPC)) was 108 % of control; the T/C (dose: 10.0 mg/kg/injection, schedule: Q01DX009 (ip), vehicle: saline) is 112 % of control; the T/C (dose: 10.0 mg/kg/injection, schedule: Q01DX010 (ip), vehicle: Klucel (hydroxypropylcellulose) (HPC)) is 120 % of control; the T/C (dose: 20.0 mg/kg/injection, schedule: Q01DX009 (ip), vehicle: saline) is 112 % of control. For the same molecule, the T/C reads like this: (dose: 40.0 mg/kg/injection, schedule: Q01DX009 (ip), vehicle: saline) 169 % of control; (dose: 40.0 mg/kg/injection, schedule: Q01DX010 (ip), vehicle: Klucel (hydroxypropylcellulose) (HPC)) 171 % of control; (dose: 80.0 mg/kg/injection, schedule: Q01DX009 (ip), vehicle: saline) 110 % of control; (dose: 80.0 mg/kg/injection, schedule: Q01DX010 (ip), vehicle: Klucel (hydroxypropylcellulose) (HPC)) 91 % of control.
As for `C=C1C(=O)O[C@@H]2/C=C(/C)C3=CC(=O)[C@@](C)(C[C@@H](OC(=O)C(C)CC)C12)O3` (stereo not given in full), the T/C was 100 % of control (dose: 10.0 mg/kg/injection, schedule: Q01DX005 (ip), vehicle: Klucel (hydroxypropylcellulose) (HPC)); 102 % of control (dose: 20.0 mg/kg/injection, schedule: Q01DX005 (ip), vehicle: Klucel (hydroxypropylcellulose) (HPC)); 114 % of control (dose: 40.0 mg/kg/injection, schedule: Q01DX005 (ip), vehicle: Klucel (hydroxypropylcellulose) (HPC)); 108 % of control (dose: 80.0 mg/kg/injection, schedule: Q01DX005 (ip), vehicle: Klucel (hydroxypropylcellulose) (HPC)).
In the case of `CCOC(=O)c1ccc(NC(=O)N2CCCCC2C)cc1` (stereo not given), the T/C is, setting by setting: under setting [8], 104 % of control; under setting [9], 89 % of control; (dose: 240.0 mg/kg/injection, schedule: Q01DX005 (ip), vehicle: Klucel (hydroxypropylcellulose) (HPC)) 97 % of control.
For the molecule `S=C(N\N=C/C(/C=C/c1ccccc1)=N\NC(=S)Nc1ccc(Br)cc1)Nc1ccc(Br)cc1`, the T/C runs as follows: (dose: 100.0 mg/kg/injection, schedule: Q04DX002 (ip), vehicle: Klucel (hydroxypropylcellulose) (HPC)) 106 % of control; (dose: 200.0 mg/kg/injection, schedule: Q04DX002 (ip), vehicle: Klucel (hydroxypropylcellulose) (HPC)) 97 % of control; (dose: 400.0 mg/kg/injection, schedule: Q04DX002 (ip), vehicle: Klucel (hydroxypropylcellulose) (HPC)) 95 % of control.
Take `COc1ccc(/C(=N\O)c2nccc3cc(OC)c(OC)cc23)cc1OC`: the T/C runs as follows: (dose: 15.0 mg/kg/injection, schedule: Q01DX005 (ip), vehicle: saline with Tween-80) 116 % of control; (dose: 30.0 mg/kg/injection, schedule: Q01DX005 (ip), vehicle: saline with Tween-80) 105 % of control; under setting [1], 99 % of control and 92 % of control.
`OCCN=Cc1ccccc1O.OCCN=Cc1ccccc1O.[Cu]`: the T/C under setting [7] was 110 % of control.
`COc1cc(OCc2ccccc2)c(O)cc1-c1coc2cc(OCc3ccccc3)ccc2c1=O`: the T/C under setting [4] is 96 % of control, the T/C under setting [5] is 100 % of control and the T/C under setting [6] is 94 % of control.
In the case of `COC(=O)c1sc(N2CCCC2)nc1N`, the T/C was 102 % of control under setting [1], 99 % of control under setting [2] and 97 % of control under setting [3].
`CC[n+]1c(/C=C/c2ccc(N(C)C)cc2)ccc2ccccc21`: the T/C reads like this: (dose: 0.19 mg/kg/injection, schedule: Q01DX009 (ip), vehicle: saline) 100 % of control; (dose: 0.39 mg/kg/injection, schedule: Q01DX009 (ip), vehicle: saline) 86 % of control; (dose: 0.78 mg/kg/injection, schedule: Q01DX009 (ip), vehicle: saline) 114 % of control; (dose: 1.56 mg/kg/injection, schedule: Q01DX009 (ip), vehicle: saline) 96 % of control.
